In patent publication US20240317683A1, “METHODS OF TREATING MOOD DISORDERS” (priority 2020, published 2024):
Structures can show the parent of a compound that is named as a salt. Where two headings read alike, the source gives them in different places.

Tests used:
[1] = biological target: serotonin transporter (SERT) (Homo sapiens (Human), UniProt P31645); experiment: SERT fluorescent substrate uptake inhibition in transfected HEK293 cells; assay type: cell-based; conditions: HEK293 cells expressing SERT
Protocol: SERT Uptake Inhibition. The ability of test compounds to block monoamine uptake by SERT was determined using the Neurotransmitter Transporter Uptake Assay Kit manufactured by Molecular Devices (Cat #R8173). Briefly, stably transfected HEK293 cells expressing SERT were grown and plated into 384-well plates at a concentration of 20,000 cells per well. Plates were then incubated for 16-20 h at 37° C. and 5% CO2. The medium was then aspirated and replaced with 25 μL of assay buffer (20 mM HEPES in HBSS, containing 0.1% BSA) containing the test compounds at the appropriate concentrations. Plates were then centrifuged at 300 rpm for 15 s and then incubated at 37° C. for 30 minutes. At this time, 25 μL of the proprietary fluorescent dye solution was added, the plates were incubated at 37°° C. for 60 minutes, and then fluorescence was quantified on a plate reader (excitation wavelength =440 nm, emission wavelength=520 nm). The proprietary dye solution contains a mixture of 1) a fluorescent dye (dye 1) that mimics the endogenous substrate of SERT and is thereby actively transported to the intracellular compartment in the absence of an inhibitor and 2) a masking dye that inhibits the fluorescence of dye 1 in the extracellular compartment. Therefore, the overall fluorescence of the system increases as the fluorescent dye is transported into the cells.

[2] = biological target: 5-HT2B (Homo sapiens (Human), UniProt P41595); experiment: FLIPR Ca2+ flux agonist assay, 5-HT2B; assay type: cell-based; conditions: for 5-HT2B % Act @ Max Dose: Ca2+ flux, HEK293
Sequence of 5-HT2B (P41595 whole entry, looked up, species assumed): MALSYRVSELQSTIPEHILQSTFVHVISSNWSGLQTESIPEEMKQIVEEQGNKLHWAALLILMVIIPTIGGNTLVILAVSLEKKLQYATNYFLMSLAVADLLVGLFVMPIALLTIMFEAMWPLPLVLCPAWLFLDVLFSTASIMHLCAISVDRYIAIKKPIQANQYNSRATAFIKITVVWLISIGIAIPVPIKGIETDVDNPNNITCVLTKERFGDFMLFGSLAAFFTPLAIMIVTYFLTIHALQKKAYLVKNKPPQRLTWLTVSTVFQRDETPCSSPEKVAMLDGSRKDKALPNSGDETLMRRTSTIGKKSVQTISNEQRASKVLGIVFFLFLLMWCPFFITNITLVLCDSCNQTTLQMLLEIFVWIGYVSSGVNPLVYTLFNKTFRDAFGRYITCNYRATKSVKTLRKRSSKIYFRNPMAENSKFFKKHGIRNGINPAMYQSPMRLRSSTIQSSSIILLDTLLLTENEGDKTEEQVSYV
Protocol: (§1) A solution of 250 mM probenecid in 1 mL FLIPR assay buffer was prepared fresh. This was combined with a fluorescent dye (Fluo-4 Direct™) to make a final assay concentration of 2.5 mM. […] The fluorescent dye was then added to the assay plate along with assay buffer to a final volume of 40 μL. The cell plate was incubated for 50 min at 37° C. and 5% CO2 and placed into the FLIPR Tetra along with the compound plate. 10 μL of references and compounds were then transferred from the compound plate into the cell plate and the fluorescent signal was read.

[3] = biological target: 5-HT1A (Homo sapiens (Human), UniProt P08908); experiment: FLIPR Ca2+ flux agonist assay, 5-HT1A; assay type: cell-based
Protocol: as §1

[4] = biological target: 5-HT2A (Homo sapiens (Human), UniProt P28223); experiment: FLIPR Ca2+ flux agonist assay, 5-HT2A; assay type: cell-based; conditions: for 5-HT2A % Act @ Max Dose / EC50: HEK293
Protocol: as §1

[5] = tested on: monoamine oxidase A and B (MAO-A and MAO-B); experiment: Stability in the presence of monoamine oxidases (human liver mitochondria); assay type: in vitro ADME; conditions: for MAO stability (in words): human liver mitochondria preparation; for half-life at 1 μM / microsomal CLint at 1 μM: human liver mitochondria, pH 7.4; for half-life at 1 μM / microsomal CLint at 1 μM / Remaining (t = 60 min): human mitochondrial preparation, 1 μM
Protocol: Liver Mitochondria Incubations. Human liver mitochondria (Xenotech H0610.M) were used. Mitochondrial incubations were carried out in multi-well plates. […] Six time points over 60 minutes were analyzed.

[6] = Stability in rat brain homogenate; assay type: in vitro ADME, Sprague Dawley rats; conditions: for half-life at 1 μM: male, Sprague Dawley; for half-life at 1 μM / % Compound Remaining (after 120 min): rat brain homogenate, 37° C., 1 μM
Protocol: Rat Brain Homogenate Stability. Frozen rat brain homogenate (pooled from male Sprague Dawley rats, BioreclamationIVT, RATOOBRAINMZA) was thawed in a water bath at 37° C. immediately prior to use. Positive controls and test compounds (final concentration in incubation medium=1 μM for test compounds and 2 μM for controls, all with 2% DMSO) were incubated in duplicate for each time point (0, 10, 30, 60, and 120 min) in the rat brain homogenate at a total reaction volume of 100 μL at 37° C. At the end of each incubation period, reactions were immediately quenched with 400 μL of acetonitrile containing internal standard (200 ng/ml tolbutamine and 200 ng/ml labetalol) and mixed thoroughly. Plates were then sealed, shaken for 20 min, and centrifuged at 4,000 rpm and 4° C. for 20 min. Aliquots of 50 μL of each supernatant were diluted into 100 uL of water and the mixtures were then shaken again for 10 min.

[7] = Metabolic stability in mouse liver microsomes (MLM); assay type: in vitro ADME, CD-1 mice; conditions: CD-1, mouse, pooled mouse liver microsomes, pH 7.4, NADPH
Protocol: (§2) MLM Stability. Pooled MLM from CD-1 mice (BIOIVT M00501) were used. Microsomal incubations were carried out in multi-well plates. […] Control incubations were performed by replacing the NADPH-cofactor system with PBS. Test compounds (1 μM, final solvent concentration 1.0%) were incubated with microsomes at 37° C. with constant shaking. Six time points over 60 minutes were analyzed, with 60 μL aliquots of the reaction mixture being drawn at each time point.

[8] = Metabolic stability in human liver microsomes (HLM); assay type: in vitro ADME; conditions: both sexes, pooled human liver microsomes, pH 7.4, NADPH
Protocol: as §2, with “HLM” for “MLM”, “adult male and female donors (Corning 452117)” for “CD-1 mice (BIOIVT M00501)”

[9] = Metabolic stability in rat liver microsomes (RLM); assay type: in vitro ADME; conditions: both sexes, pooled rat liver microsomes, pH 7.4, NADPH
Protocol: as §2, with “RLM” for “MLM”, “adult male and female donors (Xenotech R1000)” for “CD-1 mice (BIOIVT M00501)”

Structure (SMILES) | IC50 [1] | SERT % Inhibition @ Max Dose [1] | 5-HT2B % Act @ Max Dose [2] | EC50 [3] | 5-HT1A % Act @ Max Dose ([3]; Ca2+ flux, CHO cells) | 5-HT2A % Act @ Max Dose [4] | EC50 [4] | MAO stability (in words) [5] | half-life at 1 μM [5] | microsomal CLint at 1 μM [5] | Remaining (t = 60 min) [5] | stability in rat brain homogenate (in words) [6] | half-life at 1 μM [6] | % Compound Remaining (after 120 min) [6] | half-life at 1 μM [7] | microsomal CLint at 1 μM [7] | half-life at 1 μM [8] | microsomal CLint at 1 μM [8] | half-life at 1 μM [9] | microsomal CLint at 1 μM [9] | also measured
CCN(C)CCc1c[nH]c2ccc(F)cc12 [Compound 4, N-ethyl-2-(5-fluoro-1H-indol-3-yl)-N-methylethan-1-amine hydrochloride] | 419 nM | 77.45% | 0.79% | 16900 nM | 83.01% | 87.6% | 20.6 nM | intermediate stability | > 145 min | < 15.9 µL/min/mg | 75.0% | intermediate stability | 183 min | 62.0% | 47.6 min | 29.1 µL/min/mg | 47.9 min | 28.9 µL/min/mg | 6.1 min | 229 µL/min/mg | EC50 [2]: > 10000 nM; selectivity for 5-HT2A over 5-HT2B (in words) [4]: highly selective
CCN(C)CCc1c[nH]c2ccccc12 [Compound 2, methylethyltryptamine] | 9130 nM | 62.06% | 22.5% | 59500 nM | 73.6% | 36.2% | – | intermediate stability | > 145 min | < 15.9 µL/min/mg | 84.5% | high stability | > 289 min | 76.5% | 102 min | 13.6 µL/min/mg | 126 min | 11.2 µL/min/mg | 0.9 min | 1560 µL/min/mg | Emax [4]: 36.2%; selectivity for 5-HT2A over 5-HT2B (in words) [4]: highly selective
CN(C)CCc1c[nH]c2cccc(O)c12 [Psilocin, psilocin, reference compound] | 2040 nM | 88.15% | 1.44% | > 3160 nM | 0.720% | – | – | highly stable | > 145 min | < 15.9 µL/min/mg | 112.1% | intermediate stability | 115 min | 46.1% | 127 min | 10.9 µL/min/mg | 110 min | – | 75.6 min | 18.3 µL/min/mg | –
CN(C)CCc1c[nH]c2ccc(F)cc12 [Compound 5, 2-(5-fluoro-1H-indol-3-yl)-N,N-dimethylethan-1-amine hydrochloride] | – | – | – | – | – | – | – | highly metabolized | 8.7 min | 266 µL/min/mg | 0.9% | highly unstable | 2.7 min | 0.0% | 27.3 min | 50.8 µL/min/mg | 4.6 min | 300 µL/min/mg | 9.2 min | 151 µL/min/mg | –
CN(C)CCc1c[nH]c2ccccc12 [DMT, N,N-dimethyltryptamine, reference compound] | 2960 nM | 67.92% | 10.4% | – | 68.1% | 93.4% | – | highly metabolized | 17.1 min | 135 µL/min/mg | 8.9% | highly unstable | 5.1 min | 0.0% | 69.1 min | 20.1 µL/min/mg | 7 min | – | 10.1 min | 137 µL/min/mg | –
CCN(C)CCc1c[nH]c2cccc(O)c12 [Compound 6] | 3270 nM | 84.02% | 1.09% | – | 72.96% | 103.0% | 15.1 nM | highly stable | > 145 min | < 15.9 µL/min/mg | 112.3% | intermediate stability | 53 min | 20.9% | > 145 min | < 9.6 µL/min/mg | > 145 min | < 9.6 µL/min/mg | 50.1 min | 27.7 µL/min/mg | EC50 ([3]; Ca2+ flux, CHO cells, read-out: 5-HT1A EC50): 14700 nM
CCCN(CC)CCc1c[nH]c2ccccc12 [Compound 1, ethylpropyltryptamine] | 750 nM | 75.35% | 80.4% | 88700 nM | 75.5% | – | 30.5 nM | highly stable | > 145 min | < 15.9 µL/min/mg | 95.1% | high stability | > 289 min | 86.9% | 6 min | 231 µL/min/mg | 21.7 min | 64.3 µL/min/mg | 1.4 min | 970 µL/min/mg | EC50 [2]: 40.3 nM
CCCN(CC)CCc1c[nH]c2ccc(F)cc12 [Compound 3, N-ethyl-N-(2-(5-fluoro-1H-indol-3-yl)ethyl) propan-1-amine hydrochloride] | – | – | 64.64% | 19600 nM | 88.34% | 104.1% | 5.54 nM | highly stable | > 145 min | < 15.9 µL/min/mg | 97.7% | high stability | > 289 min | 103.3% | 5.5 min | 250 µL/min/mg | 13 min | 106 µL/min/mg | 3.2 min | 428 µL/min/mg | EC50 [2]: 15.4 nM; selectivity for 5-HT2A over 5-HT2B (in words) [4]: little selectivity
